According to patent US11219118B2 (Drexel University, priority 2018, dated 2022):

Test system: CT26 challenge tumors
Test: Anti-tumor vaccination assay (whole-cell vaccine, live CT26 challenge)
Type: in vivo, Balb/c mice
Settings: challenge tumor at day 26; mice immunized with CT26 cells treated in vitro (plasma 300 mJ or Cisplatin 50 μM 24 hours)
Experimental: To ascertain whether the DAMP signals elicited by plasma could enhance immune responses against cancer, a vaccination assay was performed. […] Cells were prepared for inoculation and injected into the left flank as a whole-cell vaccine to allow an immune response to develop. One week after immunization, mice were challenged with live CT26 cancer cells on the opposite flank and tumor growth was monitored twice a week until day 26 when the study was terminated as a subset of the animals reached IACUC-approved endpoints (FIG. 8A). CT26 cells treated with media only or Cisplatin (50 μM for 24 hours), a non-ICD inducer, [60] were used as controls.
Cisplatin-vaccine was prepared from cells incubated for 24 hours in Cisplatin media. Media-Vaccine was prepared from cells cultured in regular, complete media for 24 hours. Cisplatin- and media-vaccines were used as controls.
After a 24-hour incubation 3×10^6 cells in 100 μL of PBS were inoculated subcutaneously into the left flank of Balb/c mice. Seven days later, mice were challenged with 3×10^5 live CT26 cells subcutaneously injected into the right flank. Tumors were measured twice weekly with calipers and all mice were euthanized on […].

With `N.N.[Cl][Pt][Cl]` [Cisplatin] the mean tumor volume was 1041.8±208.3 mm^3.
